Columns and labels:
Assay in all cases: combination Emax (second highest fraction inhibited in the dose matrix, 72 h); higher = more inhibition; extreme values may be limits of the assay
[1] = system: LNCaP-Clone-FGC (Prostate Carcinoma)
Outline: (§1)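 Cell lines in DMEM/F12 or RPMI with 10% FBS were plated in 1536-well plates, held 24 hours at 37°C, 5% CO2, then given two-drug dose matrices for 72 hours (DMSO typically 0.2%). Viability was read by CellTiter-Glo 2.0 luminescence and scaled as inhibition from 0 (vehicle wells) to 1 (blank wells). Combination Emax is the second-highest inhibition in the matrix; Bliss excess is observed combination effect minus expected EA + EB − EA·EB, EA and EB being single-agent effects.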

[2] = system: Daoy (Other Solid Carcinomas)
Outline: as §1

[3] = system: TCCSUP (Bladder Carcinoma)
Outline: as §1

[4] = system: KELLY (Neuroblastoma)
Outline: as §1

[5] = system: HuP-T4 (Pancreatic Carcinoma)
Outline: as §1

[6] = system: MFE-296 (Endometrial Carcinoma)
Outline: as §1

[7] = system: KYSE-520 (Esophageal Squamous Cell Carcinoma)
Outline: as §1

[8] = system: HOS (Osteosarcoma)
Outline: as §1

[9] = system: ES4 (Ewing's Sarcoma)
Outline: as §1

[10] = system: LU-135 (Small Cell Lung Carcinoma)
Outline: as §1

[11] = system: TE-9 (Esophageal Squamous Cell Carcinoma)
Outline: as §1

[12] = system: OVCA420 (Ovarian Carcinoma)
Outline: as §1

[13] = system: Calu-3 (Lung Adenocarcinoma)
Outline: as §1

[14] = system: CaR-1 (Colorectal Carcinoma)
Outline: as §1

[15] = system: DEL (T-Cell Non-Hodgkin's Lymphoma)
Outline: as §1

[16] = system: RC-K8 (B-Cell Non-Hodgkin's Lymphoma)
Outline: as §1

[17] = system: ME-1 (Acute Myeloid Leukemia)
Outline: as §1

[18] = system: NCI-H2085 (Non-Small Cell Lung Carcinoma)
Outline: as §1

[19] = system: TE-15 (Esophageal Squamous Cell Carcinoma)
Outline: as §1

[20] = system: CCRF-CEM (T-Lymphoblastic Leukemia)
Outline: as §1

SMILES | combination Emax [1] | combination Emax [2] | combination Emax [3] | combination Emax [4] | combination Emax [5] | combination Emax [6] | combination Emax [7] | combination Emax [8] | combination Emax [9] | combination Emax [10] | combination Emax [11] | combination Emax [12] | combination Emax [13] | combination Emax [14] | combination Emax [15] | combination Emax [16] | combination Emax [17] | combination Emax [18] | combination Emax [19] | combination Emax [20]
CC(=O)c1c(C)c2cnc(Nc3ccc(N4CCNCC4)cn3)nc2n(C2CCCC2)c1=O [Palbociclib] + CC1(C)CCC(CN2CCN(c3ccc(C(=O)NS(=O)(=O)c4ccc(NCC5CCOCC5)c([N+](=O)[O-])c4)c(Oc4cnc5[nH]ccc5c4)c3)CC2)=C(c2ccc(Cl)cc2)C1 [Venetoclax] (first compound max 10 µM, 7x7, partner max 1 µM) | 0.405 | 0.218 | 0.152 | 0.52 | 0.163 | 0.203 | 0.114 | 0.258 | 0.21 | 0.445 | 0.114 | 0.0625 | 0.0931 | 0.0978 | 0.874 | 0.506 | 1 | 0.167 | 0.343 | 0.67
Cc1c2c(nn1C)CSCc1cc(n(C)n1)CSc1cc(c3ccccc3c1)OCCCc1c(C(=O)O)n(C)c3c-2c(Cl)ccc13 [AZD5991] + C[C@@H](Nc1cc(F)cc(F)c1)c1cc(C(=O)N(C)C)cc2c(=O)cc(N3CCOCC3)oc12 [AZD8186] (first compound max 1 µM, 7x7, partner max 3 µM) | 0.894 | 0.391 | 0.227 | 0.726 | 0.442 | 0.265 | 0.412 | 0.174 | 0.305 | 0.417 | 0.135 | 0.282 | 0.175 | 0.174 | 1 | 0.2 | 0.787 | 0.691 | 0.223 | 0.27
COc1nnc2ccc(N3CCC(c4ccc(OCCN5CCN(C)C(=O)[C@H]5C)cc4)CC3)nn12 [AZD5153] + Cc1c2c(nn1C)CSCc1cc(n(C)n1)CSc1cc(c3ccccc3c1)OCCCc1c(C(=O)O)n(C)c3c-2c(Cl)ccc13 [AZD5991] (first compound max 1 µM, 7x7, partner max 1 µM) | 0.772 | 0.801 | 0.32 | 0.993 | 0.606 | 0.878 | 0.585 | 0.879 | 0.63 | 0.994 | 0.57 | 0.771 | 0.677 | 0.434 | 1 | 0.832 | 0.793 | 0.64 | 0.627 | 0.858
CC1(C)CCC(CN2CCN(c3ccc(C(=O)NS(=O)(=O)c4ccc(NCC5CCOCC5)c([N+](=O)[O-])c4)c(Oc4cnc5[nH]ccc5c4)c3)CC2)=C(c2ccc(Cl)cc2)C1 [Venetoclax] + C[C@@H](Nc1cc(F)cc(F)c1)c1cc(C(=O)N(C)C)cc2c(=O)cc(N3CCOCC3)oc12 [AZD8186] (first compound max 1 µM, 7x7, partner max 3 µM) | 0.809 | 0.176 | 0.131 | 1 | 0.195 | 0.0282 | 0.247 | 0.0842 | 0.211 | 0.484 | 0.129 | 0.165 | 0.0911 | 0.109 | 0.312 | 0.281 | 1 | 0.354 | 0.369 | 0.95
CC1(C)CCC(CN2CCN(c3ccc(C(=O)NS(=O)(=O)c4ccc(NCC5CCOCC5)c([N+](=O)[O-])c4)c(Oc4cnc5[nH]ccc5c4)c3)CC2)=C(c2ccc(Cl)cc2)C1 [Venetoclax] + Cc1cc2ncnn2cc1Nc1ncc2c(n1)n(C1CCOCC1)c(=O)n2C [AZD7648] (first compound max 1 µM, 7x7, partner max 10 µM) | 0.423 | 0.172 | 0.271 | 0.989 | 0.202 | 0.147 | 0.34 | 0.204 | 0.104 | 0.386 | 0.154 | 0.223 | 0.155 | 0.175 | 0.457 | 0.496 | 1 | 0.143 | 0.295 | 0.931
Cc1nc(Nc2ncc(C(=O)Nc3c(C)cccc3Cl)s2)cc(N2CCN(CCO)CC2)n1 [Dasatinib] + CC(=O)Nc1cccc(-n2c(=O)n(C3CC3)c(=O)c3c(Nc4ccc(I)cc4F)n(C)c(=O)c(C)c32)c1 [Trametinib] (first compound max 2 µM, 7x7, partner max 1 µM) | 0.15 | 0.41 | 0.266 | 0.556 | 0.486 | 0.224 | 0.784 | 0.397 | 0.215 | 0.0891 | 0.271 | 0.903 | 0.619 | 0.57 | 0.433 | 0.124 | 0.375 | 0.82 | 0.782 | 0.149
